Test results reported in paper PMC12065899 (Communications Biology, 2025).
Residue numbers refer to the chain shown, from its start.

Key:
Assay type in all cases: biochemical
[1] = target: T1, HvExoI (β-D-glucan glucohydrolase) (Hordeum vulgare, UniProt Q9XEI3, E245A); assay: X-ray crystal structure
T1 sequence (Q9XEI3 26-630 E245A): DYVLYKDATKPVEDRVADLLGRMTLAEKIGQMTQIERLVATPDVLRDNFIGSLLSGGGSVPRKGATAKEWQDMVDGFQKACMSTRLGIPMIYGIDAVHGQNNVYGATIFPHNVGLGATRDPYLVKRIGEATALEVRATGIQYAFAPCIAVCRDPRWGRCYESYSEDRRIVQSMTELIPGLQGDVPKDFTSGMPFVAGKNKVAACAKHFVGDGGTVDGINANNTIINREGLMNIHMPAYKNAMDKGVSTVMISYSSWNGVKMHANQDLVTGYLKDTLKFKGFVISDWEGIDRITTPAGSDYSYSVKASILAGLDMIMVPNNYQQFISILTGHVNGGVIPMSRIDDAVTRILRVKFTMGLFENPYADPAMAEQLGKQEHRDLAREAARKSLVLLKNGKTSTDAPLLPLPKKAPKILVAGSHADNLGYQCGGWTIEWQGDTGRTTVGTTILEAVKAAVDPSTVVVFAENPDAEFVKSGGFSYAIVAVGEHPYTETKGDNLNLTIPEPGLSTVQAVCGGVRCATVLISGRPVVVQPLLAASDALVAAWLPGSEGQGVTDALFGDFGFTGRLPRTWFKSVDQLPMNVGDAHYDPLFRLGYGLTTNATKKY

[2] = target: T2, HvExoI (β-D-glucan glucohydrolase) (Hordeum vulgare, UniProt Q9XEI3); assay: competitive inhibition kinetics with 4NP-Glc
T2 sequence (Q9XEI3 26-630): T1 sequence (Q9XEI3 26-630 E245A) with A220E

[3] = target: T1, HvExoI (β-D-glucan glucohydrolase); assay: competitive inhibition kinetics with 4NP-Glc

| Compound | Ki [1] | Ki [2] | Ki [3] |
| --- | --- | --- | --- |
| O=[N+]([O-])c1ccc(O[C@H]2O[C@H](CO)[C@@H](O)[C@H](O)[C@H]2F)c([N+](=O)[O-])c1 [2F-DNPGlc, 2,4-dinitrophenyl 2-deoxy-2-fluro-α-D-glucopyranoside] | 500 nM | 500 nM |  |
| O=C1O[C@H](CO)[C@@H](O)[C@H](O)[C@H]1O [glucono-δ-lactone] |  |  | 103000 nM |
